Where two headings read alike, the source gives them in different places.
How the values were obtained:
A549 = experiment: Cytostatic/cytotoxic MTT assay, A549; assay type: cell-based; conditions: Homo sapiens, read-out: MTT, IC50 A549
Excerpt: (§1) Unless otherwise stated, all cells were purchased from the […] (ATCC). The CCRF-CEM line is derived from T lymphoblastic leukemia, evincing high chemosenzitivity, K562 represent cells from a […] patient sample with bcr-abl translocation, HCT116 is colorectal tumor cell line and its p53 gene knock-down counterpart (HCT116p53−/−, Horizon Discovery, UK) is a model of human cancers with p53 inactivation frequently associated with poor prognosis, A549 cell line is lung adenocarcinoma. The daunorubicin resistant subline of CCRF-CEM cells (CEM-DNR bulk) and paclitaxel resistant subline K562-TAX were selected in our laboratory by cultivation of maternal cell lines in increasing concentrations of daunorubicine or paclitaxel, respectively. The CEM-DNR cells overexpress mrp-1 and mdr-1 genes, while K562-TAX cells overexpress mdr-1 only. Both proteins belong to the family of ABC transporters and are involved in the primary and/or acquired multidrug resistance phenomenon (ref.: Gottesman, M. M.; Fojo, T.; Bates, S. E. Multidrug resistance in cancer: role of ATP-dependent transporters. Nat. Rev. Cancer. 2002, 2, 48-58. (b) Noskova, V.; Dzubak, P.; Kuzmina, G.; Ludkova, A.; Stehlik, D.; Trojanec, R.; Janostakova, A.; Korinkova, G.; Mihal, V.; Hajduch, M. In vitro chemoresistance profile and expression/function of MDR associated proteins in resistant cell lines derived from CCRF-CEM, K562, A549 and MDA MB 231 parental cells. Neoplasma 2002, 49, 418-425). Non-malignant MRC-5 and BJ cells, derived from normal human fibroblasts, were used as controls. The cells were maintained in Nunc/Corning 80 cm^2 plastic tissue culture flasks and cultured in cell culture medium (DMEM/RPMI 1640 with 5 g/L glucose, 2 mM glutamine, 100 U/mL penicillin, 100 µg/mL streptomycin, 10% fetal calf serum, and NaHCO3). Cell suspensions were prepared and diluted according to the particular cell type and the expected target cell density (25,000-30,000 cells/well based on cell growth characteristics). Cells were added by pipette (80 L) into 96-well microtiter plates. Inoculates were allowed a pre-incubation period of 24 h at 37° C. and 5% CO2 for stabilization. Four-fold dilutions, in 20-L aliquots, of the intended test concentration were added to the microtiter plate walls at time zero. All test compound concentrations were examined in duplicate. Incubation of the cells with the test compounds lasted for 72 h at 37° C., in a 5% CO2 atmosphere at 100% humidity. At the end of the incubation period, the cells were assayed using MTT. Aliquots (10 L) of the MTT stock solution (5 mg/ml) were pipetted into each well and incubated for another 1-4 h. After this incubation period the formazan produced was dissolved by addition of 100 µL/well of 10% aq SDS (pH 5.5), followed by a further incubation at 37° C. overnight. The optical density was measured at 540 nm. The IC50 value, the drug concentration inhibiting the cell growth by 50%, was calculated from appropriate dose-response curves.
(§2) In vitro cytotoxic/cytostatic activity final nucleosides 1-5 was initially evaluated against […] cell lines derived from human solid tumors including lung (A549 cells) and colon (HCT116 and HCT116p53−/−) carcinomas, as well as leukemia cell lines (CCRF-CEM, CEM-DNR, K562 and K562-TAX) and, for comparison, non-malignant BJ and MRC-5 fibroblasts. Concentrations inhibiting the cell growth by 50% (IC50) were determined using a quantitative metabolic staining with 3-(4,5-dimethylthiazol-2-yl)-2,5-diphenyltetrazolium bromide (MTT) (ref.: Denizot, F.; Lang, R. Rapid colorimetric assay for cell growth and survival: Modifications to the tetrazolium dye procedure giving improved sensitivity and reliability. J. Immunol. Meth. 1986, 89, 271-277) following a 3-day treatment.

CEM-DNR-bulk = experiment: Cytostatic/cytotoxic MTT assay, CEM-DNR-bulk; assay type: cell-based; conditions: Homo sapiens, 72 h, read-out: MTT, IC50 CEM-DNR-bulk
Excerpt: as §1, §2
Multidrug resistance is a major therapeutic problem in cancer chemotherapy. […]

[1] = tested on: HCV subtype 1B replicon in Huh-7 cells; experiment: HCV sub-genomic reporter replicon assay, subtype 1B; assay type: cell-based; conditions: Hepatitis C virus
Protocol: (§3) Compounds were also tested in Huh-7 cells harboring sub-genomic reporter replicons derived from HCV subtypes 1B and 2A (ref.: Stuyver, L. J.; Whitaker, T.; McBrayer, T. R.; Hernandez-Santiago, B. I.; Lostia, S.; Tharnish, P. M.; Ramesh, M.; Chu, C. K.; Jordan, R.; Shi, J. X.; Rachakonda, S.; Watanabe, K. A.; Otto, M. J.; Schinazi, R. F. Antimicrob. Agents Chemother. 2003, 47, 244-254).

[2] = tested on: HCV subtype 2A replicon in Huh-7 cells; experiment: HCV sub-genomic reporter replicon assay, subtype 2A; assay type: cell-based; conditions: Hepatitis C virus
Protocol: as §3

[3] = Huh-7 cells, HCV subtype 1B replicon, read-out: Replicon 1B EC50
[4] = Huh-7 cells, HCV subtype 2A replicon, read-out: Replicon 2A EC50
[5] = Huh-7, read-out: Replicon 1B EC50
[6] = Huh-7, read-out: Replicon 2A EC50

SMILES	IC50 (A549; A549, 72 h incubation) [µM]	IC50 (CEM-DNR-bulk; daunorubicin resistant subline) [µM]	EC50 [1, 3] [µM]	melting point [°C]	EC50 [2, 4] [µM]	IC50 (A549; A549, 72 h) [µM]	IC50 (CEM-DNR-bulk) [µM]	EC50 [1, 5] [µM]	EC50 [2, 6] [µM]
CNc1ncnc2c1c(-c1cccs1)cn2[C@@H]1O[C@H](CO)[C@@H](O)[C@H]1O [Compound 3c, 4-Methylamino-7-(β-D-ribofuranosyl)-5-(thiophen-2-yl)-7H-pyrrolo[2,3-d]pyrimidine]	> 20	> 20	> 44	183 to 185	> 44				
Cc1ncnc2c1c(-c1cc3ccccc3o1)cn2[C@@H]1O[C@H](CO)[C@@H](O)[C@H]1O [Compound 5f, 5-(Benzofuran-2-yl)-4-methyl-7-(β-D-ribofuranosyl)-7H-pyrrolo[2,3-d]pyrimidine]	> 20	> 20	6.76		40.2				
C#Cc1cn([C@@H]2O[C@H](CO)[C@@H](O)[C@H]2O)c2ncnc(C)c12 [Compound 5g, 5-Ethynyl-4-methyl-7-(β-D-ribofuranosyl)-7H-pyrrolo[2,3-d]pyrimidine]	19.2	0.16	0.23		21.6				
C#Cc1cn([C@@H]2O[C@H](CO)[C@@H](O)[C@H]2O)c2ncnc(SC)c12 [Compound 2g, 5-Ethynyl-4-methylsulfanyl-7-(β-D-ribofuranosyl)-7H-pyrrolo[2,3-d]pyrimidine]	0.14	0.11	0.21		> 44				
Cc1ncnc2c1c(-c1ccco1)cn2[C@@H]1O[C@H](CO)[C@@H](O)[C@H]1O [Compound 5a, 5-(Furan-2-yl)-4-methyl-7-(β-D-ribofuranosyl)-7H-pyrrolo[2,3-d]pyrimidine]	0.11	0.07	0.07		0.15				
Cc1ncnc2c1c(-c1ccoc1)cn2[C@@H]1O[C@H](CO)[C@@H](O)[C@H]1O [Compound 5b, 5-(Furan-3-yl)-4-methyl-7-(β-D-ribofuranosyl)-7H-pyrrolo[2,3-d]pyrimidine]	> 20	> 20	4.43		> 44				
CSc1ncnc2c1ccn2[C@@H]1O[C@H](CO)[C@@H](O)[C@H]1O [RC2, reference compound]						> 20	3.61	29.9	> 44
COc1ncnc2c1ccn2[C@@H]1O[C@H](CO)[C@@H](O)[C@H]1O [RC1, reference compound]	> 20	> 20	43.2		> 44				
Cc1ncnc2c1ccn2[C@@H]1O[C@H](CO)[C@@H](O)[C@H]1O [RC5, 4-Methyl-7-(β-D-ribofuranosyl)-7H-pyrrolo[2,3-d]pyrimidine, reference compound]						0.03	0.05	0.02	0.02
CNc1ncnc2c1ccn2[C@@H]1O[C@H](CO)[C@@H](O)[C@H]1O [RC3, reference compound]	> 20	4.89	0.82		> 44				
CSc1ncnc2c1c(-c1cccs1)cn2[C@@H]1O[C@H](CO)[C@@H](O)[C@H]1O [Compound 2c, 4-Methylsulfanyl-7-(β-D-ribofuranosyl)-5-(thiophen-2-yl)-7H-pyrrolo[2,3-d]pyrimidine]	> 20	> 20	5.42		> 44				
Cc1ncnc2c1c(-c1ccccc1)cn2[C@@H]1O[C@H](CO)[C@@H](O)[C@H]1O [Compound 5e, 4-Methyl-5-phenyl-7-(β-D-ribofuranosyl)-7H-pyrrolo[2,3-d]pyrimidine]	> 20	> 20	34.8		> 44				
CN(C)c1ncnc2c1c(-c1ccccc1)cn2[C@@H]1O[C@H](CO)[C@@H](O)[C@H]1O [Compound 4e, 4-Dimethylamino-5-phenyl-7-(β-D-ribofuranosyl)-7H-pyrrolo[2,3-d]pyrimidine]	> 100	> 20	26.9		> 44				
CN(C)c1ncnc2c1c(-c1cc3ccccc3o1)cn2[C@@H]1O[C@H](CO)[C@@H](O)[C@H]1O [Compound 4f, 5-(Benzofuran-2-yl)-4-dimethylamino-7-(β-D-ribofuranosyl)-7H-pyrrolo[2,3-d]pyrimidine]	> 20	> 20	19.2		> 44				
C#Cc1cn([C@@H]2O[C@H](CO)[C@@H](O)[C@H]2O)c2ncnc(NC)c12 [Compound 3g, 5-Ethynyl-4-methylamino-7-(β-D-ribofuranosyl)-7H-pyrrolo[2,3-d]pyrimidine]	> 20	18.5	0.35		> 44				
Cc1ncnc2c1c(-c1ccsc1)cn2[C@@H]1O[C@H](CO)[C@@H](O)[C@H]1O [Compound 5d, 4-Methyl-7-(β-D-ribofuranosyl)-5-(thiophen-3-yl)-7H-pyrrolo[2,3-d]pyrimidine]	> 20	8.56	4.47		> 44				
CSc1ncnc2c1c(-c1cc3ccccc3o1)cn2[C@@H]1O[C@H](CO)[C@@H](O)[C@H]1O [Compound 2f, 5-(Benzofuran-2-yl)-4-methylsulfanyl-7-(β-D-ribofuranosyl)-7H-pyrrolo[2,3-d]pyrimidine]	> 20	> 20	8.03		29.6				
CN(C)c1ncnc2c1ccn2[C@@H]1O[C@H](CO)[C@@H](O)[C@H]1O [RC4, reference compound]	> 20	2.6	0.27		0.97				
COc1ncnc2c1c(-c1cc3ccccc3o1)cn2[C@@H]1O[C@H](CO)[C@@H](O)[C@H]1O [Compound 1f, 5-(Benzofuran-2-yl)-4-methoxy-7-(β-D-ribofuranosyl)-7H-pyrrolo[2,3-d]pyrimidine]	17.7	10.8	2.64		10.2				
CN(C)c1ncnc2c1c(-c1cccs1)cn2[C@@H]1O[C@H](CO)[C@@H](O)[C@H]1O [Compound 4c, 4-Dimethylamino-7-(β-D-ribofuranosyl)-5-(thiophen-2-yl)-7H-pyrrolo[2,3-d]pyrimidine]	> 20	> 20	16.8		> 44				
C#Cc1cn([C@@H]2O[C@H](CO)[C@@H](O)[C@H]2O)c2ncnc(OC)c12 [Compound 1g, 5-Ethynyl-4-methoxy-7-(β-D-ribofuranosyl)-7H-pyrrolo[2,3-d]pyrimidine]	8.16	3.49	0.18		> 44				

Reference: patent US9586986B2, “Substituted 7-deazapurine ribonucleosides for therapeutic uses” (Institute of Organic Chemistry and Biochemistry ASCR, v.v.i., priority 2014, dated 2017)
